# Where two headings read alike, the source gives them in different places.
# What was measured:
# [1] = test system: MDR-S. Enteritidis strains; assay: Stability assay, pH (MIC)
# Source text: (§4) To explore the utility of phytochemicals as therapeutic molecules and their stability, individual phytochemicals were exposed to cationic salts, and different pH levels followed by analysing their MIC and MBC values against test strains as described earlier.
# (§5) Subsequent to exposure to varied conditions, the antimicrobial activity of the phytochemicals was estimated by determining their MIC and MBC values against all the selected MDR strains of EAEC, S. Enteritidis, and S. Typhimurium as described earlier.
# [2] = test system: MDR-S. Typhimurium strains; assay: Stability assay, cationic salts (MIC)
# Source text: as §4, §5
# [3] = test system: MDR-S. Typhimurium strains; assay: MIC and MBC by broth microdilution with resazurin; type: cell-based, Salmonella Typhimurium; conditions: poultry droppings isolate
# Source text: (§1) The characterised MDR field strains of EAEC (E1; E2; E3), S. Enteritidis (S1; S2; S3), and S. Typhimurium (ST1; ST2; ST3) maintained in the laboratory repository of Meat Safety Laboratory of ICAR-National Research Centre on Meat, Hyderabad re-validated using PCR assays were used to evaluate the in vitro antibacterial efficacy of phytochemicals. E. coli ATCC 25922 was used as the quality control strain.
# (§2) The antimicrobial efficacy of identified phytochemicals against multi-drug resistant EAEC and NTS strains was determined by estimating the minimum inhibitory concentration (MIC) and minimum bactericidal concentrations (MBC).
# (§3) Subsequent to the incubation period, resazurin dye (0.015 %) was added to all the wells to determine the dye reduction (pink) and thereby the bacterial inhibition.
# [4] = test system: MDR-S. Enteritidis strains; assay: Stability assay, cationic salts (MIC)
# Source text: as §4, §5
# [5] = test system: MDR-S. Typhimurium strains; assay: Stability assay, pH (MIC)
# Source text: as §4, §5
# MDR-EAEC strains [6] = assay: MIC and MBC by broth microdilution with resazurin; type: cell-based, enteroaggregative Escherichia coli; conditions: infant diarrhoea isolate
# Source text: as §1, §2, §3
# MDR-EAEC strains [7] = assay: Stability assay, cationic salts (MIC)
# Source text: as §4, §5
# MDR-EAEC strains [8] = assay: Stability assay, pH (MIC)
# Source text: as §4, §5
# Haemolytic assay = type: cell-based; conditions: read-out: Haemolysis; for hemolysis at 0.5 X MIC: 0.50X MIC
# Procedure: The haemolytic assay of the individual phytochemical was performed by measuring the release of haemoglobin from sheep and human ‘O’ erythrocytes at 540 nm. The percentage of haemolysis was calculated as (Asample – APBS)/ (ATriton−X – APBS) ×100, in which Asample is the absorbance of phytochemical treatment, APBS is the absorbance of untreated control with PBS, and ATriton−X is the absorbance of lysed cells treated with Triton X-100 measured at 540 nm.
# [9] = test system: MDR-S. Enteritidis strains; assay: MIC and MBC by broth microdilution with resazurin; type: cell-based, Salmonella Enteritidis; conditions: poultry droppings isolate
# Source text: as §1, §2, §3
# [10] = human 'O' erythrocytes, Human RBCs
smiles,measurement,setting,value
"Cc1ccc(C(C)C)c(O)c1 [Thymol, thymol]",MIC at given pH,"[1]; pH 4, strain S1",0.5 µl/ml
same,MIC at given pH,"[1]; pH 4, strain S2",0.5 µl/ml
same,MIC at given pH,"[1]; pH 4, strain S3",0.5 µl/ml
same,MIC at given pH,"[1]; pH 6, strain S1",0.5 µl/ml
same,MIC at given pH,"[1]; pH 6, strain S2",0.5 µl/ml
same,MIC at given pH,"[1]; pH 6, strain S3",0.5 µl/ml
same,MIC at given pH,"[1]; pH 8, strain S1",0.5 µl/ml
same,MIC at given pH,"[1]; pH 8, strain S2",1.0 µl/ml
same,MIC at given pH,"[1]; pH 8, strain S3",0.5 µl/ml
same,MIC with cationic salt,"[2]; 2 mM MgCl2, strain ST1",0.5 µl/ml
same,MIC with cationic salt,"[2]; 2 mM MgCl2, strain ST2",1.0 µl/ml
same,MIC with cationic salt,"[2]; 2 mM MgCl2, strain ST3",0.5 µl/ml
same,MIC with cationic salt,"[2]; 150 mM NaCl, strain ST1",0.5 µl/ml
same,MIC with cationic salt,"[2]; 150 mM NaCl, strain ST2",0.5 µl/ml
same,MIC with cationic salt,"[2]; 150 mM NaCl, strain ST3",0.5 µl/ml
same,MBC,[3]; S. Typhimurium (ST1),0.50 µl/ml
same,MIC,[3]; S. Typhimurium (ST1),0.25 µl/ml
same,MBC,[3]; S. Typhimurium (ST2),0.50 µl/ml
same,MIC,[3]; S. Typhimurium (ST2),0.25 µl/ml
same,MBC,[3]; S. Typhimurium (ST3),0.50 µl/ml
same,MIC,[3]; S. Typhimurium (ST3),0.06 µl/ml
same,MIC with cationic salt,"[4]; 2 mM MgCl2, strain S1",0.5 µl/ml
same,MIC with cationic salt,"[4]; 2 mM MgCl2, strain S2",0.5 µl/ml
same,MIC with cationic salt,"[4]; 2 mM MgCl2, strain S3",0.5 µl/ml
same,MIC with cationic salt,"[4]; 150 mM NaCl, strain S1",0.5 µl/ml
same,MIC with cationic salt,"[4]; 150 mM NaCl, strain S2",0.5 µl/ml
same,MIC with cationic salt,"[4]; 150 mM NaCl, strain S3",1.0 µl/ml
same,MIC at given pH,"[5]; pH 4, strain ST1",0.5 µl/ml
same,MIC at given pH,"[5]; pH 4, strain ST2",0.5 µl/ml
same,MIC at given pH,"[5]; pH 4, strain ST3",0.5 µl/ml
same,MIC at given pH,"[5]; pH 6, strain ST1",0.5 µl/ml
same,MIC at given pH,"[5]; pH 6, strain ST2",1.0 µl/ml
same,MIC at given pH,"[5]; pH 6, strain ST3",0.5 µl/ml
same,MIC at given pH,"[5]; pH 8, strain ST1",0.5 µl/ml
same,MIC at given pH,"[5]; pH 8, strain ST2",1.0 µl/ml
same,MIC at given pH,"[5]; pH 8, strain ST3",1.0 µl/ml
same,MBC,MDR-EAEC strains [6]; EAEC (E1),0.25 µl/ml
same,MIC,MDR-EAEC strains [6]; EAEC (E1),0.25 µl/ml
same,MBC,MDR-EAEC strains [6]; EAEC (E2),0.50 µl/ml
same,MIC,MDR-EAEC strains [6]; EAEC (E2),0.25 µl/ml
same,MBC,MDR-EAEC strains [6]; EAEC (E3),0.25 µl/ml
same,MIC,MDR-EAEC strains [6]; EAEC (E3),0.25 µl/ml
same,MIC with cationic salt,"MDR-EAEC strains [7]; 2 mM MgCl2, strain E1",0.25 µl/ml
same,MIC with cationic salt,"MDR-EAEC strains [7]; 2 mM MgCl2, strain E2",0.25 µl/ml
same,MIC with cationic salt,"MDR-EAEC strains [7]; 2 mM MgCl2, strain E3",0.25 µl/ml
same,Change of MIC values with cationic salts,"MDR-EAEC strains [7]; 150 mM NaCl and 2 mM MgCl2, MDR-EAEC strains",remained almost similar
same,MIC with cationic salt,"MDR-EAEC strains [7]; 150 mM NaCl, strain E1",0.25 µl/ml
same,MIC with cationic salt,"MDR-EAEC strains [7]; 150 mM NaCl, strain E2",0.25 µl/ml
same,MIC with cationic salt,"MDR-EAEC strains [7]; 150 mM NaCl, strain E3",0.25 µl/ml
same,MIC at given pH,"MDR-EAEC strains [8]; pH 4, strain E1",0.25 µl/ml
same,MIC at given pH,"MDR-EAEC strains [8]; pH 4, strain E2",0.25 µl/ml
same,MIC at given pH,"MDR-EAEC strains [8]; pH 4, strain E3",0.25 µl/ml
same,MIC at given pH,"MDR-EAEC strains [8]; pH 6, strain E1",0.25 µl/ml
same,MIC at given pH,"MDR-EAEC strains [8]; pH 6, strain E2",0.25 µl/ml
same,MIC at given pH,"MDR-EAEC strains [8]; pH 6, strain E3",0.25 µl/ml
same,MIC at given pH,"MDR-EAEC strains [8]; pH 8, strain E1",0.5 µl/ml
same,MIC at given pH,"MDR-EAEC strains [8]; pH 8, strain E2",0.25 µl/ml
same,MIC at given pH,"MDR-EAEC strains [8]; pH 8, strain E3",0.5 µl/ml
same,hemolysis at 0.25 X MIC,Haemolytic assay; [10],1.22%
same,hemolysis at 0.5 X MIC,Haemolytic assay; [10],1.91%
same,hemolysis at 1 X MIC,Haemolytic assay; [10],2.86%
same,hemolysis at 2 X MIC,Haemolytic assay; [10],13.5%
same,hemolysis at 4 X MIC,Haemolytic assay; [10],39.4%
same,hemolysis at 8 X MIC,Haemolytic assay; [10],48.5%
same,hemolysis at 0.25 X MIC,"Haemolytic assay; sheep erythrocytes, Sheep RBCs",0%
same,hemolysis at 0.5 X MIC,"Haemolytic assay; sheep erythrocytes, Sheep RBCs",0.22%
same,hemolysis at 1 X MIC,"Haemolytic assay; sheep erythrocytes, Sheep RBCs",1.49%
same,hemolysis at 2 X MIC,"Haemolytic assay; sheep erythrocytes, Sheep RBCs",11.4%
same,hemolysis at 4 X MIC,"Haemolytic assay; sheep erythrocytes, Sheep RBCs",21.6%
same,hemolysis at 8 X MIC,"Haemolytic assay; sheep erythrocytes, Sheep RBCs",47.6%
same,MBC,[9]; S. Enteritidis (S1),0.50 µl/ml
same,MIC,[9]; S. Enteritidis (S1),0.12 µl/ml
same,MBC,[9]; S. Enteritidis (S2),0.50 µl/ml
same,MIC,[9]; S. Enteritidis (S2),0.25 µl/ml
same,MBC,[9]; S. Enteritidis (S3),0.50 µl/ml
same,MIC,[9]; S. Enteritidis (S3),0.25 µl/ml

# Reference: PMC8286599 (Gut Pathogens, 2021)
